Laboratory results published in publication PMC10515640, “Structure-Based Optimization of Covalent, Small-Molecule Stabilizers of the 14-3-3σ/ERα Protein–Protein Interaction from Nonselective Fragments” (Journal of the American Chemical Society, 2023).

How the values were obtained:
14-3-3σ/ERα [1] = molecular target: T1, 14-3-3σ/ERα (Homo sapiens, UniProt P03372+P31947); test: Fluorescence anisotropy protein titration, FAM-labeled ERα peptide; assay type: binding; conditions: 10 nM FAM-ERα peptide, versus DMSO reference
T1 construct: The 14-3-3 σ isoform (full-length for mass spectrometry and fluorescence anisotropy assays, ΔC for crystallography); made in house; host or cells: E. coli Rosetta 2(DE3)pLysS, pPROEX HTb vector
Procedure: To evaluate compound-mediated stabilization of the 14-3-3σ/ERα complex directly, FA protein titrations were performed at a saturating concentration of compound. FA protein titrations allowed the quantification of the cooperative effect by comparing the apparent dissociation constants (appKD) of the binary and ternary complexes. 14-3-3σ was titrated into 10 nM FAM-labeled ERα peptide in the presence of DMSO or 100 μM of the compounds (Table S4). […]
diluted in buffer (10 mM HEPES, pH 7.5, 150 mM NaCl, 0.1% Tween20, 1 mg/mL Bovine Serum Albumin (BSA; Sigma-Aldrich). Final DMSO in the assay was always 1%. […]
Protein titrations were made by titrating 14-3-3σ in a 2-fold dilution series (starting at 300 µM) to a mix of fluorescein-labeled peptide (10 nM) and DMSO or compound (100 µM). Fluorescence anisotropy measurements were performed after overnight incubation at room temperature. […]
(§1) Wells containing only FAM-peptide were used to set as G-factor at 35 mP. Data reported are at endpoint. EC50 and apparent Kd values were obtained from fitting the data with a four-parameter logistic model (4PL) in GraphPad Prism 7 for Windows. Data was obtained and averaged based on either three (compound titrations) or two (protein titrations) independent experiments.

14-3-3σ = molecular target: T2, 14-3-3σ (Homo sapiens, UniProt P31947); test: Mass spectrometry dose response, compound binding to 14-3-3σ in the absence of peptide (apo); conditions: 100 nM compound, 100 nM 14-3-3σ
T2 construct: The 14-3-3 σ isoform (full-length for mass spectrometry and fluorescence anisotropy assays, ΔC for crystallography); made in house; host or cells: E. coli Rosetta 2(DE3)pLysS, pPROEX HTb vector
T2 sequence (P31947 1-248): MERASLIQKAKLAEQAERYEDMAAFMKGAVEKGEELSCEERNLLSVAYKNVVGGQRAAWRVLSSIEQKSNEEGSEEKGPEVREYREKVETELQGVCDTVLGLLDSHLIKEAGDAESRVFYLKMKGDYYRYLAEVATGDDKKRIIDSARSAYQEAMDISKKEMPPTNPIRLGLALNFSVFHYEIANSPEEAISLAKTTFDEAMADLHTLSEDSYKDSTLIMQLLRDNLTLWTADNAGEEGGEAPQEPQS
Outline: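 Covalent binding of compounds to Cys38 of full-length wild type human 14-3-3σ (100 nM) was measured by LC-MS without peptide present. Compounds from 50 mM DMSO stocks were serially diluted 3-fold and 1000 nl transferred to plates in TRIS buffer (10 mM, pH 8.0), 50 μl per well. Samples were desalted on a BEH-C4 column and analysed on a Xevo G2-XS Q-Tof at several time points.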

14-3-3σ/ERα [2] = molecular target: T1, 14-3-3σ/ERα; test: Mass spectrometry dose response, compound binding to 14-3-3σ in the presence of ERα phosphopeptide; conditions: 100 nM compound, 100 nM 14-3-3σ, ERα-peptide 2 µM
Outline: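 Covalent labeling of Cys38 on 14-3-3σ was tracked by LC-MS on a Waters Acquity UPLC/Xevo G2-XS Q-Tof, with samples desalted on a Protein BEH-C4 column. Full-length wild type 14-3-3σ (100 nM) plus ERα phosphopeptide was mixed with compound in 10 mM TRIS, pH 8.0, at 50 μl per well. Percent bound was measured at several time points.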

14-3-3σ/C-RAF [3] = molecular target: T3, 14-3-3σ/C-RAF (Homo sapiens, UniProt P31947); test: Mass spectrometry dose response, compound binding to 14-3-3σ in the presence of C-RAF phosphopeptide; conditions: 100 nM compound, 100 nM 14-3-3σ, C-RAF peptide 18 µM
T3 construct: The 14-3-3 σ isoform (full-length for mass spectrometry and fluorescence anisotropy assays, ΔC for crystallography); made in house; host or cells: E. coli Rosetta 2(DE3)pLysS, pPROEX HTb vector
T3 sequence (P31947 1-248): T2 sequence (P31947 1-248)
Outline: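 Covalent binding of compounds to the native Cys38 of 14-3-3σ was monitored by LC-MS on a Waters Acquity UPLC/Xevo G2-XS Q-Tof, with samples desalted on a BEH-C4 column. Full-length wild type 14-3-3σ (100 nM) with C-RAF peptide in TRIS buffer (10 mM, pH 8.0) was incubated with compound dose series at room temperature.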

14-3-3σ/ERα [4] = molecular target: T1, 14-3-3σ/ERα; test: Fluorescence anisotropy compound titration, FAM-labeled ERα peptide; assay type: binding; conditions: 10 nM ERα-FAM labeled peptide, 1 µM 14-3-3σ, overnight incubation (24 h); read-out: EC50 value ERα (FA compound titration)
Outline: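 Fluorescence anisotropy compound titration measuring stabilization of the 14-3-3σ/ERα interaction: compounds were titrated in a 2-fold dilution series (starting at 500 or 1000 µM) into a mix of 10 nM fluorescein-labeled ERα peptide and 1 µM 14-3-3σ (about EC25 of the complex) in HEPES buffer with 1% DMSO, read after overnight incubation at room temperature; EC50 from 4PL fitting.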

14-3-3σ/C-RAF [5] = molecular target: T3, 14-3-3σ/C-RAF; test: Fluorescence anisotropy compound titration, FAM-labeled C-RAF peptide; assay type: binding; conditions: 10 nM C-RAF-FAM labeled peptide, 5 µM 14-3-3σ, overnight incubation; read-out: EC50 value C-RAF (FA compound titration)
Text: Two orthogonal assays were developed for screening. For the primary assay, mass spectrometry (MS) was used to monitor the formation of the covalent bond between the compound and the native cysteine (Cys38 on 14-3-3σ) (Figure 1D). The assay was first performed in the absence of peptide to determine binding to 14-3-3σ only (apo screening, D1) and then in the presence of both 14-3-3σ and the peptide as an indication of how much the peptide stabilized compound binding (D2). […] As a secondary assay, fluorescence anisotropy (FA) was used. In this case, compounds were titrated to mixtures of 14-3-3σ and FAM-labeled peptides. […] Thus, the two assays are highly complementary; the MS assay reports on compound binding and the FA assay reports on peptide binding. […]
diluted in buffer (10 mM HEPES, pH 7.5, 150 mM NaCl, 0.1% Tween20, 1 mg/mL Bovine Serum Albumin (BSA; Sigma-Aldrich). Final DMSO in the assay was always 1%. Dilution series of 14-3-3 proteins or compounds were made in […]
Compound titrations were made by titrating the compound in a 2-fold dilution series (starting at 500 or 1000 µM) to a mix of fluorescein-labeled peptide (10 nM) and 14-3-3σ (concentration at approximately the EC20 to EC30 value of the protein-peptide complex; 1 µM for ERα and 5 µM for C-RAF). Using the ~EC25 value makes the assay sensitive for measuring an increase in PPI formation. Fluorescence anisotropy measurements were performed directly and after overnight incubation at room temperature. […]
as §1

| Compound | X Fold stabilization (100 µM compound) of 14-3-3σ/ERα (14-3-3σ/ERα [1]) | Percentage (%) bound of compound to 14-3-3σ, APO 1h (14-3-3σ) | Percentage (%) bound of compound to 14-3-3σ, APO 8h (14-3-3σ) | Percentage (%) bound of compound to 14-3-3σ, APO 16h (14-3-3σ) | Percentage (%) bound of compound to 14-3-3σ, APO 24h (14-3-3σ) | Percentage (%) bound of compound to 14-3-3σ, ERα 1h (14-3-3σ/ERα [2]) | Percentage (%) bound of compound to 14-3-3σ, ERα 8h (14-3-3σ/ERα [2]) | Percentage (%) bound of compound to 14-3-3σ, ERα 16h (14-3-3σ/ERα [2]) | Percentage (%) bound of compound to 14-3-3σ, ERα 24h (14-3-3σ/ERα [2]) | Percentage (%) bound of compound to 14-3-3σ, CRAF 1h (14-3-3σ/C-RAF [3]) | Percentage (%) bound of compound to 14-3-3σ, CRAF 8h (14-3-3σ/C-RAF [3]) | Percentage (%) bound of compound to 14-3-3σ, CRAF 24h (14-3-3σ/C-RAF [3]; 24h) | Percentage (%) bound of compound to 14-3-3σ, CRAF 24h (14-3-3σ/C-RAF [3]; head prints 24h) | EC50 (14-3-3σ/ERα [4]) | EC50 (14-3-3σ/C-RAF [5]) |
| --- | --- | --- | --- | --- | --- | --- | --- | --- | --- | --- | --- | --- | --- | --- | --- |
| C=CC(C)(C)OCC1OC(OC2C3=C(C(C)COC(C)=O)CC(O)C3(C)C=C3C(COC)CCC3C(C)C2O)C(O)C(OC(C)=O)C1O (stereo not drawn) [FC-A, Fusicoccin-A, reference compound] | 166 fold | – | – | – | – | – | – | – | – | – | – | – | – | – | – |
| O=C(CCl)N1CC2(CCN(C(=O)C3(Nc4ccc(Cl)cc4)CCOCC3)CC2)C1 [compound 160] | – | 0% | 0% | 1.0% | 5.8% | 6.9% | 8.6% | 48.4% | 76.6% | 0.4% | 1.9% | 8.4% | 3.8% | 16 ± 1 µM | > 150 µM |
| O=C(CCl)N1CCC2(CC1)CN(C(=O)C1(Nc3ccc(Cl)cc3)CCOCC1)C2 [compound 161] | – | 0% | 0% | 0.5% | 1.0% | 4.7% | 7.8% | 14.9% | 39.8% | 0% | 0.6% | 2.1% | 1.0% | 22 ± 1 µM | > 150 µM |
| O=C(CCl)N1CCC2(CC1)CC(CNC(=O)C1(Nc3ccc(Cl)cc3)CCOCC1)C2 [compound 175] | – | 1.9% | 5.4% | 10.6% | 16.7% | 21.7% | 39.4% | 64.1% | 87.3% | 2.4% | 6.0% | 17.4% | 9.6% | 15 ± 2 µM | > 150 µM |

Next, values leading:

| X Fold stabilization (100 µM compound) of 14-3-3σ/ERα (14-3-3σ/ERα [1]) | Percentage (%) bound of compound to 14-3-3σ, APO 1h (14-3-3σ) | Percentage (%) bound of compound to 14-3-3σ, APO 8h (14-3-3σ) | Percentage (%) bound of compound to 14-3-3σ, APO 16h (14-3-3σ) | Percentage (%) bound of compound to 14-3-3σ, APO 24h (14-3-3σ) | Percentage (%) bound of compound to 14-3-3σ, ERα 1h (14-3-3σ/ERα [2]) | Percentage (%) bound of compound to 14-3-3σ, ERα 8h (14-3-3σ/ERα [2]) | Percentage (%) bound of compound to 14-3-3σ, ERα 16h (14-3-3σ/ERα [2]) | Percentage (%) bound of compound to 14-3-3σ, ERα 24h (14-3-3σ/ERα [2]) | Percentage (%) bound of compound to 14-3-3σ, CRAF 1h (14-3-3σ/C-RAF [3]) | Percentage (%) bound of compound to 14-3-3σ, CRAF 8h (14-3-3σ/C-RAF [3]) | Percentage (%) bound of compound to 14-3-3σ, CRAF 24h (14-3-3σ/C-RAF [3]; 24h) | Percentage (%) bound of compound to 14-3-3σ, CRAF 24h (14-3-3σ/C-RAF [3]; head prints 24h) | EC50 (14-3-3σ/ERα [4]) | EC50 (14-3-3σ/C-RAF [5]) | Compound |
| --- | --- | --- | --- | --- | --- | --- | --- | --- | --- | --- | --- | --- | --- | --- | --- |
| – | 0.9% | 2.0% | 2.4% | 4.8% | 16.5% | 31.4% | 58.4% | 82.6% | 0.4% | 0.6% | 2.6% | 1.9% | 30 ± 1 µM | > 150 µM | Cl.O=C(CCl)NCC1CCN(C(=O)C2(Oc3ccc(Cl)cc3)CCNCC2)CC1 [compound 129] |
| – | 0.8% | 0.9% | 1.8% | 2.4% | 11.3% | 22.2% | 42.2% | 64.2% | 0.5% | 1.8% | 3.4% | 2.6% | 37 ± 5 µM | > 150 µM | NC1CCC(Oc2ccc(Cl)cc2)(C(=O)N2CCC(CNC(=O)CCl)CC2)CC1 (stereo not drawn) [compound 135] |
| – | 1.0% | 1.0% | 1.5% | 3.0% | 5.0% | 5.0% | 8.4% | 41.4% | 0.6% | 0.7% | 2.1% | 1.6% | 97 ± 9 µM | > 150 µM | O=C(CCl)NCC1CC2(CCN(C(=O)C3(Nc4ccc(Cl)cc4)CCOCC3)CC2)C1 [compound 174] |
| – | 0% | 0% | 0.3% | 0.4% | 1.5% | 3.0% | 6.4% | 11.8% | 0% | 0% | 1.0% | 0% | 23 ± 2 µM | > 150 µM | CC1(C)CC(Nc2ccc(Cl)cc2)(C(=O)N2CCC(CNC(=O)CCl)CC2)CC(C)(C)O1 [compound 179] |
